Laboratory results published in patent publication US6552080B1, “Fungicidal compounds having a fluorovinyl-or fluoropropenyl-oxyphenyloxime moiety and process for the preparation thereof” (Korea Research Institute of Chemical Technology, priority 1999, dated 2003).
Read-outs that look alike come from different tables or passages of the source.

How the values were obtained:
[1] = test system: Pyricularia oryzae Carvara KA301; type: in vivo; details: for RCV (Fungicidal Activities, C.V.): Rice Blast
Botrytis cinerae = assay: Fungicidal activity against Cucumber Gray Mold Rot (CGM) disease; type: in vivo; details: for CGM (Fungicidal Activities, C.V.): Cucumber Gray Mold Rot, concentration 50 ppm; for Fungicidal Activities CGM (C.V.): 50 ppm
Method: Botrytis cinerae, which was isolated from cucumber infected thereby, was inoculated on a PDA agar medium and cultured under a 12L/12D cycle at 25° C. for 15 days to form spore. The spores were scraped, filtered through a gauze and then suspended in potato dextrose liquid medium at a concentration of 1×10^6 spore/ml. The spore suspension was sprayed on a cucumber plant having one leaf. The cucumber plant was held in a humidified room at 20° C. for 3 days. L.A. on a leaf was measured to calculate an C.V.

Phytophthora infestans = type: in vivo; details: for TLB (Fungicidal Activities, C.V.): Tomato Late Blight
Puccinia recondita = assay: Fungicidal activity against Wheat Leaf Rust (WLR) disease; type: in vivo; details: for WLR (Fungicidal Activities, C.V.): Wheat Leaf Rust
Erysiphae graminis = assay: Fungicidal activity against Barley Powdery Mildew (BPM) disease; type: in vivo; details: for BPM (Fungicidal Activities, C.V.): Barley Powdery Mildew
Rhizoctonia solani AG-1 = assay: Fungicidal activity against Rice Sheath Blight (RSB) disease; details: for RSB (Fungicidal Activities, C.V.): Rice Sheath Blight

Row | SMILES | RCV (Fungicidal Activities, C.V.) ([1]; concentration 50 ppm) [%] | CGM (Fungicidal Activities, C.V.) (Botrytis cinerae) [%] | TLB (Fungicidal Activities, C.V.) (Phytophthora infestans; concentration 50 ppm) [%] | WLR (Fungicidal Activities, C.V.) (Puccinia recondita; concentration 2 ppm) [%] | WLR (Fungicidal Activities, C.V.) (Puccinia recondita; concentration 10 ppm) [%] | WLR (Fungicidal Activities, C.V.) (Puccinia recondita; concentration 50 ppm) [%] | BPM (Fungicidal Activities, C.V.) (Erysiphae graminis; concentration 2 ppm) [%] | BPM (Fungicidal Activities, C.V.) (Erysiphae graminis; concentration 10 ppm) [%] | BPM (Fungicidal Activities, C.V.) (Erysiphae graminis; concentration 50 ppm) [%] | RSB (Fungicidal Activities, C.V.) (Rhizoctonia solani AG-1; concentration 50 ppm) [%] | RCV (Fungicidal Activities, C.V.) ([1]; concentration 2 ppm) [%] | further results
1 | COC=C(C(=O)OC)c1ccccc1CON=Cc1cccc(OC(F)=Cc2cc(C)cc(C)c2)c1 [Compound 5] | 41 | 17 | 28 | 96 | 100 | 100 | 98 | 100 | 100 | 55 |  | 
2 | CNC(=O)C(=NOC)c1ccccc1CON=C(C)c1cccc(OC(F)=C(c2ccc(C)c(C)c2)C(F)(F)F)c1 [Compound 193] |  |  |  |  |  |  |  |  |  |  |  | Fungicidal Activities RCV (C.V.) ([1]; 2 ppm): 93%; Fungicidal Activities RCV (C.V.) ([1]; 50 ppm): 96%; Fungicidal Activities CGM (C.V.) (Botrytis cinerae): 75%; Fungicidal Activities TLB (C.V.) (Phytophthora infestans; 2 ppm): 12%; Fungicidal Activities TLB (C.V.) (Phytophthora infestans; 50 ppm): 40%; Fungicidal Activities WLR (C.V.) (Puccinia recondita; 2 ppm): 98%; Fungicidal Activities WLR (C.V.) (Puccinia recondita; 50 ppm): 100%; Fungicidal Activities BPM (C.V.) (Erysiphae graminis; 2 ppm): 90%; Fungicidal Activities BPM (C.V.) (Erysiphae graminis; 50 ppm): 100%; Fungicidal Activities RSB (C.V.) (Rhizoctonia solani AG-1; 2 ppm): 30%; Fungicidal Activities RSB (C.V.) (Rhizoctonia solani AG-1; 50 ppm): 80%
3 | COC=C(C(=O)OC)c1ccccc1CON=C(C)c1cccc(OC(F)=C(c2ccc(OC)cc2)C(F)(F)F)c1 [Compound 158] | 41 | 44 | 0 | 91 | 98 | 100 | 98 | 100 | 100 | 70 |  | 
4 | COC=C(C(=O)OC)c1ccccc1CON=Cc1cccc(OC(F)=Cc2cccc(C)c2)c1 [Compound 2] | 93 | 17 | 85 | 97 | 100 | 100 | 98 | 99 | 100 | 60 | 33 | RCV (Fungicidal Activities, C.V.) ([1]; concentration 10 ppm): 86%
5 | CNC(=O)C(=COC)c1ccccc1CON=C(C)c1cccc(OC(F)=Cc2ccc3c(c2)OCO3)c1 [Compound 63] | 96 | 33 | 0 |  |  | 90 |  |  | 97 | 11 |  | 
6 | CON=C(C(=O)OC)c1ccccc1CON=C(C)c1cccc(OC(F)=C(c2ccccc2)C(F)(F)F)c1 [Compound 173] |  |  |  |  |  |  |  |  |  |  |  | Fungicidal Activities RCV (C.V.) ([1]; 2 ppm): 93%; Fungicidal Activities RCV (C.V.) ([1]; 50 ppm): 97%; Fungicidal Activities CGM (C.V.) (Botrytis cinerae): 25%; Fungicidal Activities TLB (C.V.) (Phytophthora infestans; 50 ppm): 20%; Fungicidal Activities WLR (C.V.) (Puccinia recondita; 2 ppm): 99%; Fungicidal Activities WLR (C.V.) (Puccinia recondita; 50 ppm): 100%; Fungicidal Activities BPM (C.V.) (Erysiphae graminis; 2 ppm): 99%; Fungicidal Activities BPM (C.V.) (Erysiphae graminis; 50 ppm): 100%; Fungicidal Activities RSB (C.V.) (Rhizoctonia solani AG-1; 2 ppm): 30%; Fungicidal Activities RSB (C.V.) (Rhizoctonia solani AG-1; 50 ppm): 100%
7 | COC=C(C(=O)OC)c1ccccc1CON=Cc1cccc(OC(F)=C(c2cccc(Cl)c2)C(F)(F)F)c1 [Compound 116] | 0 | 0 | 14 | 53 | 96 | 96 | 33 | 96 | 100 | 15 |  | 
8 | CNC(=O)C(=NOC)c1ccccc1CON=Cc1cccc(OC(F)=C(c2ccccc2)C(F)(F)F)c1 [Compound 139] | 100 | 0 | 46 | 93 |  | 98 | 97 |  | 98 | 20 | 53 | RSB (Fungicidal Activities, C.V.) (Rhizoctonia solani AG-1; concentration 2 ppm): 10%
9 | CNC(=O)C(=NOC)c1ccccc1CON=C(C)c1cccc(OC(F)=Cc2cccc(C)c2)c1 [Compound 78] | 100 | 82 | 94 | 100 |  | 100 | 100 |  | 100 | 90 | 100 | TLB (Fungicidal Activities, C.V.) (Phytophthora infestans; concentration 2 ppm): 50%; RSB (Fungicidal Activities, C.V.) (Rhizoctonia solani AG-1; concentration 2 ppm): 45%
10 | COC=C(C(=O)OC)c1ccccc1CON=C(C)c1cccc(OC(F)=Cc2cc(C)cc(C)c2)c1 [Compound 44] | 100 | 5 | 71 | 96 | 100 | 100 | 100 | 100 | 100 | 75 | 85 | RCV (Fungicidal Activities, C.V.) ([1]; concentration 10 ppm): 95%
11 | CNC(=O)C(=NOC)c1ccccc1CON=C(C)c1cccc(OC(F)=C(c2cccc(OC)c2)C(F)(F)F)c1 [Compound 197] |  |  |  |  |  |  |  |  |  |  |  | Fungicidal Activities RCV (C.V.) ([1]; 2 ppm): 100%; Fungicidal Activities RCV (C.V.) ([1]; 50 ppm): 100%; Fungicidal Activities CGM (C.V.) (Botrytis cinerae): 85%; Fungicidal Activities TLB (C.V.) (Phytophthora infestans; 2 ppm): 0%; Fungicidal Activities TLB (C.V.) (Phytophthora infestans; 50 ppm): 50%; Fungicidal Activities WLR (C.V.) (Puccinia recondita; 2 ppm): 98%; Fungicidal Activities WLR (C.V.) (Puccinia recondita; 50 ppm): 100%; Fungicidal Activities BPM (C.V.) (Erysiphae graminis; 2 ppm): 100%; Fungicidal Activities BPM (C.V.) (Erysiphae graminis; 50 ppm): 100%; Fungicidal Activities RSB (C.V.) (Rhizoctonia solani AG-1; 2 ppm): 35%; Fungicidal Activities RSB (C.V.) (Rhizoctonia solani AG-1; 50 ppm): 80%
12 | COC=C(C(=O)OC)c1ccccc1CON=C(c1cccc(OC(F)=Cc2cccc(F)c2)c1)C(F)(F)F [Compound 90] | 76 | 9 | 27 |  |  | 86 |  | 97 | 99 | 35 |  | 
13 | CCc1ccc(C=C(F)Oc2cccc(C(C)=NOCc3ccccc3C(=COC)C(=O)NC)c2)cc1 [Compound 59] | 100 | 0 | 0 |  |  | 73 |  |  | 91 | 47 |  | 
14 | CNC(=O)C(=NOC)c1ccccc1CON=Cc1cccc(OC(F)=Cc2cccc(OC)c2)c1 [Compound 35] | 100 | 0 | 0 | 83 |  | 97 | 0 |  | 100 | 52 | 97 | 
15 | CON=C(C(=O)OC)c1ccccc1CON=C(C)c1cccc(OC(F)=C(c2cccc(C)c2)C(F)(F)F)c1 [Compound 174] |  |  |  |  |  |  |  |  |  |  |  | Fungicidal Activities RCV (C.V.) ([1]; 2 ppm): 86%; Fungicidal Activities RCV (C.V.) ([1]; 50 ppm): 96%; Fungicidal Activities CGM (C.V.) (Botrytis cinerae): 0%; Fungicidal Activities TLB (C.V.) (Phytophthora infestans; 50 ppm): 0%; Fungicidal Activities WLR (C.V.) (Puccinia recondita; 2 ppm): 90%; Fungicidal Activities WLR (C.V.) (Puccinia recondita; 50 ppm): 100%; Fungicidal Activities BPM (C.V.) (Erysiphae graminis; 2 ppm): 99%; Fungicidal Activities BPM (C.V.) (Erysiphae graminis; 50 ppm): 100%; Fungicidal Activities RSB (C.V.) (Rhizoctonia solani AG-1; 2 ppm): 25%; Fungicidal Activities RSB (C.V.) (Rhizoctonia solani AG-1; 50 ppm): 60%
16 | CCCCc1ccc(C(=C(F)Oc2cccc(C(C)=NOCc3ccccc3C(=COC)C(=O)OC)c2)C(F)(F)F)cc1 [Compound 156] | 33 | 36 | 0 |  | 95 | 93 |  | 91 | 92 | 20 |  | 
17 | COC=C(C(=O)OC)c1ccccc1CON=Cc1cccc(OC(F)=Cc2ccc(Cl)cc2)c1 [Compound 14] | 100 | 7 | 12 | 96 | 99 | 100 | 99 | 100 | 100 | 75 | 58 | RCV (Fungicidal Activities, C.V.) ([1]; concentration 10 ppm): 86%
18 | CON=C(C(=O)OC)c1ccccc1CON=Cc1cccc(OC(F)=Cc2ccc(Cl)cc2)c1 [Compound 28] | 99 | 9 | 38 | 97 |  | 100 | 86 |  | 95 | 50 | 66 | TLB (Fungicidal Activities, C.V.) (Phytophthora infestans; concentration 2 ppm): 50%; RSB (Fungicidal Activities, C.V.) (Rhizoctonia solani AG-1; concentration 2 ppm): 0%
